# Assay results published in US12054494B2, “Compound with anticancer activity” (KYOWA KIRIN CO., LTD., priority 2018, dated 2024).
# Test system: SU-DHL-4 cells
# Assay: Inhibitory effect on cell viability (Cell Counting Kit-8)
# Type: cell-based
# Conditions: Homo sapiens, 72 hours culture with test compound, concentration showing 90% inhibition rate of cell viability
# Description: Inhibitiory Effect on Cell Viability
# SU-DHL-4 cells (Code No. ACC 495, Deutsche Sammlung von Mikroorganismen and Zellkulturen GmbH) were cultured at 37° C. using a carbon dioxide incubator (95% air, 5% CO2) in RPMI1640 medium (Code No. 11875-093, Thermo Fisher Scientific) in which inactivated fetal bovine serum (FBS: Code No. 10099-148, Thermo Fisher Scientific) in an amount to give a final concentration of 10 vol % and penicillin/streptomycin solution (PS: Code No. 15140-122, Thermo Fisher Scientific) in an amount to give a final concentration of 1 vol % were added. The cells were passaged twice a week at a volume of 20-40 mL so as to maintain a cell concentration of 1×10^6 cells/mL or less.
# The cultured SU-DHL-4 cells were seeded at 2000 cells/well in a transparent 384-well plate (Code No. 781182, Greiner bio-one). After seeding, the cells were precultured at 37° C. in a carbon dioxide gas incubator for 18 to 25 hours. Next, 1, 0.1 or 0.01 mmol/L DMSO solution of the test compound was prepared and a 9-step dilution series were prepared so that the concentration will be 200 times the final concentration in the RPMI1640 medium containing the above FBS and PS, and 1/200 volume of the dilution series were added to each well. At this time, the final concentration of DMSO was adjusted to be 0.1 vol %. After adding the test compound, the cells were cultured at 37° C. in a carbon dioxide gas incubator for 72 hours. Next, 0.020 mL of Cell Counting Kit-8 (Code No. CK04, DOJINDO) solution diluted 2-fold or 4-fold with phosphate buffered saline (PBS) was added to each well. Color reaction was carried out in a carbon dioxide gas incubator at 37° C. for 2 to 3 hours, and the absorbance at a wavelength of 450 nm was measured using SpectraMax 340PC (Molecular Devices). The inhibition rate of cell viability was calculated by the following formula, and the concentration of the test compound (IC90 value) showing a 90% inhibition rate of cell viability was calculated. Inhibition rate of cell viability (%)=100−(A−B)/(C−B)×100 • A: Absorbance of a well containing test compound • B: Absorbance of a well without addition of cells • C: Absorbance of a well without addition of test compound
row,Structure (SMILES),IC90
1,"CCC(=O)N1c2ccccc2[C@H](Nc2ccc(NC(=O)CNC(=O)c3ccc(N[C@@H]4C[C@H](C)N(C(=O)CC)c5ccccc54)cc3)cc2)C[C@@H]1C (relative stereo) [Compound 2a, 4-{[(2S*,4R*)-2-Methyl-1-propionyl-1,2,3,4-tetrahydroquinolin-4-yl]amino}-N-{2-[(4-{[(2S*,4R*)-2-methyl-1-propionyl-1,2,3,4-tetrahydroquinolin-4-yl]amino}phenyl)amino]-2-oxoethyl}benzamide]",2.12 nM
2,"CCC(=O)N1c2ccccc2[C@H](Nc2ccc(Cc3cnc4n3CCN(C(=O)c3ccc(N[C@@H]5C[C@H](C)N(C(=O)CC)c6ccccc65)cc3)C4)cc2)C[C@@H]1C [Compound 5q, 1-((2S,4R)-2-Methyl-4-((4-((7-(4-(((2S,4R)-2-methyl-1-propionyl-1,2,3,4-tetrahydroquinolin-4-yl)amino)benzoyl)-5,6,7,8-tetrahydroimidazo[1,2-a]pyrazin-3-yl)methyl)phenyl)amino)-3,4-dihydroquinolin-1(2H)-yl)propan-1-one]",0.11 nM
3,"CCC(=O)N1c2ccccc2[C@H](Nc2ccc(SCCNC(=O)c3ccc(N[C@@H]4C[C@H](C)N(C(=O)CC)c5ccccc54)cc3)cc2)C[C@@H]1C [Compound 4f, 4-{[(2S,4R)-2-Methyl-1-propionyl-1,2,3,4-tetrahydroquinolin-4-yl]amino}-N-{2-[(4-{[(2S,4R)-2-methyl-1-propionyl-1,2,3,4-tetrahydroquinolin-4-yl]amino}phenyl)thio]ethyl}benzamide]",1.19 nM
4,"CCC(=O)N1c2ccccc2[C@H](NCCOCCOCc2cn(-c3ccc(N[C@@H]4C[C@H](C)N(C(=O)CC)c5ccccc54)cc3)nn2)C[C@@H]1C (relative stereo) [Compound 12e, 1-((2S*,4R*)-2-Methyl-4-((2-(2-((1-(4-(((2S,4R)-2-methyl-1-propionyl-1,2,3,4-tetrahydroquinolin-4-yl)amino)phenyl)-1H-1,2,3-triazol-4-yl)methoxy)ethoxy)ethyl)amino)-3,4-dihydroquinolin-1(2H)-yl)propan-1-one]",73.7 nM
5,"CCC(=O)N1c2ccccc2C(Nc2ccc(NC(=O)C#CCNC(=O)c3ccc(N[C@@H]4C[C@H](C)N(C(=O)CC)c5ccccc54)cc3)cc2)CC1C (stereo partly drawn) [Compound 6h, 4-(((2S,4R)-2-Methyl-1-propionyl-1,2,3,4-tetrahydroquinolin-4-yl)amino)-N-(4-((4-((2-methyl-1-propionyl-1,2,3,4-tetrahydroquinolin-4-yl)amino)phenyl)amino)-4-oxobut-2-yn-1-yl)benzamide]",0.003 nM
6,"CCC(=O)N1c2ccccc2[C@H](Nc2ccc(C(=O)NCC#CC(=O)Nc3ccc(N[C@@H]4C[C@H](C)N(C(=O)CC)c5ccccc54)nc3)cc2)C[C@@H]1C (relative stereo) [Compound 10n, 4-(((2S,4R)-2-Methyl-1-propionyl-1,2,3,4-tetrahydroquinolin-4-yl)amino)-N-(4-((6-(((2S*,4R*)-2-methyl-1-propionyl-1,2,3,4-tetrahydroquinolin-4-yl)amino)pyridin-3-yl)amino)-4-oxobut-2-yn-1-yl)benzamide]",0.01 nM
7,"CCC(=O)N1c2ccccc2[C@H](Nc2ccc(-c3nnc(CNC(=O)C4CCN(Cc5cc(O)cc(-c6c(C)noc6C)c5)CC4)o3)cc2)C[C@@H]1C [Compound 12a, 1-(3-(3,5-Dimethylisoxazol-4-yl)-5-hydroxybenzyl)-N-((5-(4-(((2S,4R)-2-methyl-1-propionyl-1,2,3,4-tetrahydroquinolin-4-yl)amino)phenyl)-1,3,4-oxadiazol-2-yl)methyl)piperidine-4-carboxamide]",1.01 nM
8,"CCC(=O)N1c2ccccc2[C@H](Nc2ccc(NC(=O)CCCC(=O)Nc3ccc(C4=NCc5nnc(C)n5-c5sc(C)c(C)c54)cc3)cc2)C[C@@H]1C (relative stereo) [Compound 14t, N^1-(4-(((2S*,4R*)-2-Methyl-1-propionyl-1,2,3,4-tetrahydroquinolin-4-yl)amino)phenyl)-N^5-(4-(2,3,9-trimethyl-6H-thieno[3,2-f][1,2,4]triazolo[4,3-a][1,4]diazepin-4-yl)phenyl)glutaramide]",1.17 nM
9,"CCC(=O)N1c2ccc(F)cc2[C@H](Nc2ccc(C(=O)NCCCNC(=O)c3ccc(N[C@@H]4C[C@H](C)N(C(=O)CC)c5ccc(F)cc54)cc3)cc2)C[C@@H]1C [Compound 10q, N,N′-(Propane-1,3-diyl)bis(4-(((2S,4R)-6-fluoro-2-methyl-1-propionyl-1,2,3,4-tetrahydroquinolin-4-yl)amino)benzamide)]",9.88 nM
10,"CCC(=O)N1c2ccccc2[C@H](Nc2ccc(NC(=O)Cc3cn(-c4ccc(N[C@@H]5C[C@H](C)N(C(=O)CC)c6ccccc65)cc4)nn3)cc2)C[C@@H]1C (relative stereo) [Compound 6i, N-(4-(((2S*,4R*)-2-Methyl-1-propionyl-1,2,3,4-tetrahydroquinolin-4-yl)amino)phenyl)-2-(1-(4-(((2S*,4R*)-2-methyl-1-propionyl-1,2,3,4-tetrahydroquinolin-4-yl)amino)phenyl)-1H-1,2,3-triazol-4-yl)acetamide]",0.11 nM
11,"CCC(=O)N1c2ccccc2[C@H](Nc2ccc(NC(=O)CCCC(=O)Nc3ccc(N[C@@H]4C[C@H](C)N(C(=O)CC)c5cc(/C=C/CN)ccc54)cc3)cc2)C[C@@H]1C (relative stereo) [Compound 10t, N^1-(4-(((2S*,4R*)-7-((E)-3-Aminoprop-1-en-1-yl)-2-methyl-1-propionyl-1,2,3,4-tetrahydroquinolin-4-yl)amino)phenyl)-N^5-(4-(((2S,4R)-2-methyl-1-propionyl-1,2,3,4-tetrahydroquinolin-4-yl)amino)phenyl)glutaramide]",26.3 nM
12,"CCC(=O)N1c2ccccc2[C@H](Nc2ccc(-n3cc(CNC(=O)c4ccc(C5=NCc6nnc(C)n6-c6sc(C)c(C)c65)cc4)nn3)cc2)C[C@@H]1C [Compound 14n, N-((1-(4-(((2S,4R)-2-Methyl-1-propionyl-1,2,3,4-tetrahydroquinolin-4-yl)amino)phenyl)-1H-1,2,3-triazol-4-yl)methyl)-4-(2,3,9-trimethyl-6H-thieno[3,2-f][1,2,4]triazolo[4,3-a][1,4]diazepin-4-yl)benzamide]",0.05 nM
13,"CCC(=O)N1c2ccccc2[C@H](Nc2ccc(C(=O)NC3CCN(C(=O)c4ccc(C5=NCc6nnc(C)n6-c6sc(C)c(C)c65)cc4)CC3)cc2)C[C@@H]1C [Compound 1m, 4-{[(2S,4R)-2-Methyl-1-propionyl-1,2,3,4-tetrahydroquinolin-4-yl]amino}-N-{1-[4-(2,3,9-trimethyl-6H-thieno[3,2-f][1,2,4]triazolo[4,3-a][1,4]diazepin-4-yl)benzoyl]piperidin-4-yl}benzamide]",0.53 nM
14,"CCC(=O)N1c2ccccc2[C@H](Nc2ccc(CNCc3nnc(-c4ccc(N[C@@H]5C[C@H](C)N(C(=O)CC)c6ccccc65)cc4)o3)cc2)C[C@@H]1C [Compound 5g, 1-((2S,4R)-2-Methyl-4-((4-((((5-(4-(((2S,4R)-2-methyl-1-propionyl-1,2,3,4-tetrahydroquinolin-4-yl)amino)phenyl)-1,3,4-oxadiazol-2-yl)methyl)amino)methyl)phenyl)amino)-3,4-dihydroquinolin-1(2H)-yl)propan-1-one]",2.53 nM
